Experimental findings from US7348401B2, “Peptides that inhibit complement activation” (priority 2003, dated 2008) are described below.

Where two headings read alike, the source gives them in different places.

Assay [1] relates to classical pathway; antibody sensitized sheep erythrocyte cells. The assay is described as follows: Classical pathway hemolytic assay (RBC hemolysis assay). In kind it is cell-based, human. As to the method: Inhibition of the classical pathway by the peptides was measured using a standard hemolysis assay, which monitors the lysis of sheep erythrocytes as a result of terminal complex formation (see e.g. FIG. 1, FIG. 10). Various concentrations of peptide were incubated with 50 μL pooled human plasma (diluted 1:30 with GVB^++), 5×10^7 antibody sensitized sheep erythrocyte cells, and GVB^++ buffer to a final volume of 200 μL. The reaction was incubated at 37° C. for one hour and centrifuged. The percentage of lysis was determined by measuring the optical density of the supernatant at 414 nm. 100% lysis was determined by the optical density at 414 nm of the supernatant from a control sample consisting of 5×10^7 antibody sensitized sheep erythrocyte cells in water. The percent inhibition was calculated as the (% lysisno peptide−% lysispeptide)/% lysisno peptide×100.

In a further assay the test system is classical pathway. The assay is described as follows: Classical pathway component assay (immune complex, ELISA for C5a, SC5b-9, C3a). The assay is classed as biochemical, human. Particulars: immune complex-classical pathway assay, compared with Peptide 7. As to the method:
The inhibition of the classical pathway by the peptides was measured by incubating human plasma in the presence and absence of peptides with an immune complex generated on a surface and then monitoring for the production of complement components C5a, SC5b-9, and C3a. To generate the immune complex, a 10 mg/mL solution of BSA in PBS was incubated at 56° C. for 30 minutes and then used to coat the surface of a microplate by diluting to 50 μg/mL at pH 9.6 and incubating for one hour at 37° C. The plate was washed and then incubated with 18 μg/mL mouse anti-BSA IgG2a (Sigma) for one hour at 37° C. Pooled human plasma with and without various concentrations of peptide were incubated for 30 minutes at 37° C. with the generated immune complex and the reaction was stopped with the addition of EDTA. The plasma samples were then analyzed with commercially available ELISA's for the production of C5a (Pharmingen), SC5b-9 (Quidel), and C3a (Quidel).

Turning to “Peptide 90: Peptide 46 derivative with isoleucine at X1 (TAIVRWEFPL; complement inhibitor)”, in assay [1], the “inhibitory activity in RBC hemolysis assay compared with parent peptide” value is listed as “almost comparable activity”.

“120: Peptide 46 with a tri-peptide substituted for X1, third amino acid glutamic acid (TLEVRWEFPL; complement inhibitor) [Peptide 120]”: in assay [1], the “inhibitory activity in RBC hemolysis assay compared with parent peptide” value is “enhanced the levels of inhibitory activity”.

In the case of “Peptide 56: Peptide 50 with arginine at position 3 changed to histidine (DNHWEFPL; complement inhibitor)”, in assay [1], the “inhibitory activity in RBC hemolysis assay compared with parent peptide” value was “lowers the inhibiting activity”.

“Peptide 91: Peptide 46 derivative with leucine at X1 (TALVRWEFPL; complement inhibitor)”: the “inhibitory activity in RBC hemolysis assay compared with parent peptide” value in assay [1] was “almost comparable activity”.

For the substance “Peptide 60: Peptide 50 with tryptophan replacing the phenylalanine at X4 (DNRWEWPL; complement inhibitor)”, in assay [1], the “inhibitory activity in RBC hemolysis assay compared with parent peptide” value is “more severe losses”.

Consider “Peptide 53: Peptide 50 with glutamic acid substituted for the aspartic acid at position 1 (ENRWEFPL; complement inhibitor)”, for which the “inhibitory activity in RBC hemolysis assay compared with parent peptide” value in assay [1] is recorded as “appeared to increase the inhibitory activity”.

On to “Peptide 95: Peptide 46 derivative with proline at X1 (TAPVRWEEPL; complement inhibitor)”, for which the “inhibitory activity in RBC hemolysis assay compared with parent peptide” value in assay [1] is reported as “almost comparable activity”.

For “Peptide 61: Peptide 50 with tyrosine substituted for the phenylalanine at position 6 (DNRWEYPL; complement inhibitor)”, in assay [1], the “inhibitory activity in RBC hemolysis assay compared with parent peptide” value is listed as “minimal loss of activity”.

With “20: Peptide 7 with alanine substituted for residue W on the amino-terminal side of the consensus sequence (SFNDLLARWEWP; complement inhibitor) [Peptide 20]”, the “complement inhibiting activity (C5a and SC5b-9 production), alanine scan of Peptide 7” value (shortened to “complement inhibiting activity”) with classical pathway is listed as “slightly greater inhibitory activity”.

“Peptide 64: Peptide 50 with leucine replacing the phenylalanine at X4 (DNRWELPL; complement inhibitor)”: the “inhibitory activity in RBC hemolysis assay compared with parent peptide” value in assay [1] is recorded as “more severe losses”.

Turning to “Peptide 84: Peptide 46 derivative with a glutamic acid at X1 (TAEVRWEFPL; complement inhibitor)”, the entries for the “inhibitory activity in RBC hemolysis assay compared with parent peptide” value in assay [1] and in assay [1] (listed as SEQ ID NO 84) were “highest level of inhibitory activity” and “enhanced the levels of inhibitory activity”, respectively.

On to “Peptide 50: eight-mer: Peptide 13 with two amino acids removed from both ends (DNRWEFPL; complement inhibitor)”, for which the “original activity retained in RBC hemolysis assay” value in assay [1] (relative to Peptide 13) was 100%.

In the case of “Peptide 83: Peptide 46 derivative with a glutamic acid at X1; listed in both the X2 and X1 series (AAEVRWEFPL; complement inhibitor)”, in assay [1], the “inhibitory activity in RBC hemolysis assay compared with parent peptide” value is on record as “highest level of inhibitory activity”.

Regarding “Peptide 55: Peptide 50 with arginine at position 3 changed to lysine (DNKWEFPL; complement inhibitor)”, the “inhibitory activity in RBC hemolysis assay compared with parent peptide” value in assay [1] is listed as “lowers the inhibiting activity”.

Regarding “19: Peptide 7 with alanine substituted for a residue L on the amino-terminal side of the consensus sequence (SFNDLAWRWEWP; complement inhibitor) [Peptide 19]”, the “complement inhibiting activity” value in the assay with classical pathway is “slightly greater inhibitory activity”.

As to “Peptide 46: 10-mer: Peptide 13 with the two residues removed from the carboxyl terminus (TQDNRWEFPL; complement inhibitor)”, the “inhibitory activity in RBC hemolysis assay compared with parent peptide” value in assay [1] is given as “appears to increase the activity”.

Take “119: Peptide 46 with a tri-peptide substituted for X1, third amino acid glutamic acid (TTEVRWEFPL; complement inhibitor) [Peptide 119]”: in assay [1], the “inhibitory activity in RBC hemolysis assay compared with parent peptide” value is “enhanced the levels of inhibitory activity”.

For “Peptide 54: Peptide 50 with asparagine substituted for the aspartic acid residue (NNRWEFPL; complement inhibitor)”, the “inhibitory activity in RBC hemolysis assay compared with parent peptide” value in assay [1] was “little effect on the inhibitory activity”.

As to “112: Peptide 46 with a tri-peptide substituted for X1, third amino acid glutamic acid (EAEVRWEFPL; complement inhibitor) [Peptide 112]”, the “inhibitory activity in RBC hemolysis assay compared with parent peptide” value in assay [1] is given as “enhanced the levels of inhibitory activity”.

In the case of “18: Peptide 7 with alanine substituted for a residue L on the amino-terminal side of the consensus sequence (SFNDALWRWEWP; complement inhibitor) [Peptide 18]”, the “complement inhibiting activity” value with classical pathway is listed as “slightly greater inhibitory activity”.

On to “115: Peptide 46 with a tri-peptide substituted for X1, third amino acid glutamic acid (LAEVRWEFPL; complement inhibitor) [Peptide 115]”, for which the “inhibitory activity in RBC hemolysis assay compared with parent peptide” value in assay [1] was “enhanced the levels of inhibitory activity”.
